Measured values taken from patent US20050070510A1, “Substituted tetracycline compounds as synergistic antifungal agents” (Paratek Pharmaceuticals, Inc., priority 2001, published 2005).

Each compound was assayed on COS-1 cells (assay: In vitro mammalian cytotoxicity assay (Resazurin)).

Structure (SMILES) | In Vitro Cytotoxicity
CN(C)[C@@H]1C(O)=C(C(N)=O)C(=O)[C@@]2(C#N)C(O)=C3C(=O)c4c(O)ccc(-c5ccc(C(F)(F)F)cc5)c4C[C@@]3(N)C[C@@]12N [FQ] | ** (toxicities less than 25 μg/mL are represented by **)
Cc1ccc(-c2ccc(O)c3c2C[C@@]2(N)C[C@@]4(N)[C@H](N(C)C)C(O)=C(C(N)=O)C(=O)[C@@]4(C#N)C(O)=C2C3=O)cc1 [FR] | ** (toxicities less than 25 μg/mL are represented by **)
CN(C)[C@@H]1C(O)=C(C(N)=O)C(=O)[C@@]2(C#N)C(O)=C3C(=O)c4c(O)ccc(C=C5CCC5)c4C[C@@]3(N)C[C@@]12N [FS] | ** (toxicities less than 25 μg/mL are represented by **)
CCOc1ccc(-c2ccc(O)c3c2C[C@@]2(N)C[C@@]4(N)[C@H](N(C)C)C(O)=C(C(N)=O)C(=O)[C@@]4(C#N)C(O)=C2C3=O)cc1 [FT] | ** (toxicities less than 25 μg/mL are represented by **)
CN(C)[C@@H]1C(O)=C(C(N)=O)C(=O)[C@@]2(C#N)C(O)=C3C(=O)c4c(O)ccc(C#Cc5ccc([N+](=O)O)cc5)c4C[C@@]3(N)C[C@@]12N [FU] | ** (toxicities less than 25 μg/mL are represented by **)
CN(C)[C@@H]1C(O)=C(C(N)=O)C(=O)[C@@]2(C#N)C(O)=C3C(=O)c4c(O)ccc(-c5ccc(Cl)o5)c4C[C@@]3(N)C[C@@]12N [FV] | ** (toxicities less than 25 μg/mL are represented by **)
CN(C)[C@@H]1C(O)=C(C(N)=O)C(=O)[C@@]2(C#N)C(O)=C3C(=O)c4c(O)ccc(-c5cc6ccccc6o5)c4C[C@@]3(N)C[C@@]12N [FW] | ** (toxicities less than 25 μg/mL are represented by **)
CN(C)[C@@H]1C(O)=C(C(N)=O)C(=O)[C@@]2(C#N)C(O)=C3C(=O)c4c(O)ccc(C#Cc5ccccc5)c4C[C@@]3(N)C[C@@]12N [FX] | ** (toxicities less than 25 μg/mL are represented by **)
CCCc1cccc(-c2ccc(O)c3c2C[C@@]2(N)C[C@@]4(N)[C@H](N(C)C)C(O)=C(C(N)=O)C(=O)[C@@]4(C#N)C(O)=C2C3=O)c1 [FY] | ** (toxicities less than 25 μg/mL are represented by **)
COc1ccc(C#Cc2ccc(O)c3c2C[C@@]2(N)C[C@@]4(N)[C@H](N(C)C)C(O)=C(C(N)=O)C(=O)[C@@]4(C#N)C(O)=C2C3=O)cc1 [FZ] | ** (toxicities less than 25 μg/mL are represented by **)
CN(C)[C@@H]1C(O)=C(C(N)=O)C(=O)[C@@]2(C#N)C(O)=C3C(=O)c4c(O)ccc(C#CC5(C#N)CCCCC5)c4C[C@@]3(N)C[C@@]12N [GA] | ** (toxicities less than 25 μg/mL are represented by **)
Cc1cc(C)cc(-c2ccc(O)c3c2C[C@@]2(N)C[C@@]4(N)[C@H](N(C)C)C(O)=C(C(N)=O)C(=O)[C@@]4(C#N)C(O)=C2C3=O)c1 [GD] | ** (toxicities less than 25 μg/mL are represented by **)
CCc1ccc(O)c2c1C[C@@]1(N)C[C@@]3(N)[C@H](N(C)C)C(O)=C(C(N)=O)C(=O)[C@@]3(C#N)C(O)=C1C2=O [GE] | ** (toxicities less than 25 μg/mL are represented by **)
CN(C)[C@@H]1C(O)=C(C(N)=O)C(=O)[C@@]2(C#N)C(O)=C3C(=O)c4c(O)ccc(C#CC5=CCCCC5)c4C[C@@]3(N)C[C@@]12N [GF] | ** (toxicities less than 25 μg/mL are represented by **)
CN(C)[C@@H]1C(O)=C(C(N)=O)C(=O)[C@@]2(C#N)C(O)=C3C(=O)c4c(O)ccc(/C=C(\Cl)C5=CCCCC5)c4C[C@@]3(N)C[C@@]12N [GG] | ** (toxicities less than 25 μg/mL are represented by **)
CN(C)[C@@H]1C(O)=C(C(N)=O)C(=O)[C@@]2(C#N)C(O)=C3C(=O)c4c(O)ccc(C#Cc5ccccc5F)c4C[C@@]3(N)C[C@@]12N [GH] | ** (toxicities less than 25 μg/mL are represented by **)
